Test: Maximum concentration of ingredient incorporated into the microemulsion
Type: physicochemical
Details: incorporated into the microemulsion formulation of Table 28

Row | Compound | Approximate Maximum Concentration
1 | CC(=O)Oc1c(C)c(C)c2c(c1C)CCC(C)(CCC[C@H](C)CCC[C@H](C)CCCC(C)C)O2 (stereo partly drawn) [Vitamin E, α-Tocopherol acetate, reference compound] | 1.0
2 | Cc1ccccc1 [Toluene] | 2.0
3 | CCCCCC [Hexane] | 2.0
4 | C[C@]12C=CC(=O)C=C1CC[C@@H]1[C@@H]2C(=O)C[C@@]2(C)[C@H]1CC[C@]2(O)C(=O)CO [Prednisone, reference compound] | 0.5
5 | Xylene | 5.0

From patent US20070078057A1, “Microemulsion formulation” (priority 2005, published 2007)
